# Experimental data: patent US12678424B2, “Method for preventing and/or treating systemic inflammation” (THE BOARD OF TRUSTEES OF THE LELAND STANFORD JUNIOR …, priority 2015, dated 2026)
# Experiments:
# Type in all cases: in vivo, mice (C57BL6)
# [1] = test system: microglia; experiment: Flow cytometry of brain microglia for Slc2al expression and 2-NBDG glucose uptake in older mice; conditions: 25 mg/kg oral 3 times a week for 15 weeks from 37 weeks of age, vs vehicle-treated older mice, p<0.05
# Method: All animal studies were conducted under protocols approved by APLAC from Stanford University. Older and young animals on C57BL6 background were purchased from Taconic. Older animals are defined as those above 36 weeks of age, when physiological aging process accelerates in mice, while young counterparts are 20 weeks of age. Data are presented as mean±SEM. Two-tailed Student's t-test and two-way ANOVA were used for statistical analyses. A p value of <0.05 is considered to be statistically significant. Older animals were orally treated 3 times a week for 15 weeks with 0.5% methylcellulose (vehicle) or ZLN005 (Sigma) at 25 mg/kg in vehicle, starting at 37 weeks of age. Treated older animals (n=6), non-treated older animals (n=6), and young animals (20 weeks old, n=6) were sacrificed after drug treatment and their brain tissues collected. PBS-perfused brain tissues of sacrificed animals were digested with Collagenase I and processed for flow cytometry (Ginhoux et al Science, 330:841-5, 2010). Brain microglia were phenotyped with 2-NBDG (2-(N-(7-nitrobenz-2-oxa-1,3-diazol-4-yl)amino)-2-deoxyglucose, Invitrogen) and anti-Slc2al antibody (RnD) for flow cytometric acquisition (LSRII, BD) and analysis (FlowJo). The results are summarized in FIG. 1: Y-axis represents % of microglia that either express glucose transporter Slc2al or have taken up glucose fluorescent analog 2-NBDG. […]
# [2] = test system: microglia; experiment: Flow cytometry of brain microglia for CCL2 and TNF-α production in older mice; conditions: 25 mg/kg oral 3 times a week for 15 weeks from 37 weeks of age, vs vehicle-treated older mice
# Method: (§1) All animal studies were conducted under protocols approved by APLAC from Stanford University. Older and young animals on C57BL6 background were purchased from Taconic. Older animals are defined as those above 36 weeks of age, when physiological aging process accelerates in mice, while young counterparts are 20 weeks of age. Data are presented as mean±SEM. Two-tailed Student's t-test and two-way ANOVA were used for statistical analyses. A p value of <0.05 is considered to be statistically significant. Older animals were orally treated 3 times a week for 15 weeks with 0.5% methylcellulose (vehicle) or ZLN005 (Sigma) at 25 mg/kg in vehicle, starting at 37 weeks of age. Treated older animals (n=6), non-treated older animals or aged animals (n=6), and young animals (20 weeks old, n=6) were sacrificed after drug treatment and their brain tissues were collected. PBS-perfused brain tissues of sacrificed animals were digested with Collagenase I and processed for flow cytometry (Ginhoux et al Science. 330:841-5.2010). Brain microglia were phenotyped with fluorochrome-labeled antibodies to CCL2 and TNF-α (Biolegend) for flow cytometric acquisition (LSRII. BD) and analysis (FlowJo). The results are summarized in FIG. 2: Y-axis represents % of microglia that express CCL2 or TNF-α. ANOVA was used for statistical analysis. […]
# [3] = test system: TNF-α; experiment: Serum TNF-α by ELISA in older mice (systemic inflammation); conditions: 25 mg/kg oral 3 times a week for 15 weeks, vs vehicle-treated older mice, p<0.05
# Method: as §1, with “TNF-α levels” for “The results are summarized”, “serum” for “FIG. 2: Y-axis represents %”, “young mice, vehicle-treated older mice, and ZLN-treated older mice (from Example 2) were measured by ELISA to determine TNF-α levels which indicated systemic inflammation.” for “microglia that express CCL2 or TNF-α. ANOVA was used for statistical analysis.”
# [4] = Marble burying assay in older mice; conditions: older mice at 52 weeks of age, 25 mg/kg oral 3 times a week for 15 weeks, 12 marbles, 30 minutes, vs vehicle-treated older mice, p<0.05
# Method: All animal studies were conducted under protocols approved by APLAC from Stanford University. Older and young animals on C57BL6 background were purchased from Taconic. Older animals are defined as those above 36 weeks of age, when physiological aging process accelerates in mice, while young counterparts are 20 weeks of age. Data are presented as mean±SEM. Two-tailed Student's t-test and two-way ANOVA were used for statistical analyses. A p value of <0.05 is considered to be statistically significant.
# Animals were orally treated 3 times a week for 15 weeks with 0.5% methylcellulose (vehicle) or ZLN005 (Sigma) at 25 mg/kg in vehicle, starting at 37 weeks of age. At 52 weeks of age, the older animals were subjected to a marble burying assay, a behavioral test of anxiety (Dekeyne A. Therapie. 60:477-84.2005). Each animal was given 12 marbles on top of bedding in individual cage and allowed to run free in the cage for 30 minutes. After this period of time, each buried marble was individually assigned a number based on its degree of being buried (1=90-100% hidden, 0.75=60-90% hidden, 0.5=30-60% hidden, 0=below 30% hidden), and then the sum of the numbers of 12 marbles buried by each mouse is calculated as the marble burying score of the mouse. […] Unpaired t-test was used for statistical analysis.
compound,measurement,setting,value
"CC(C)(C)c1ccc(-c2nc3ccccc3[nH]2)cc1 [ZLN005, 2-(4-tert-Butylphenyl)-1H-benzimidazole]",% of microglia that express glucose transporter Slc2al,[1],decreased
same,% of microglia that have taken up glucose fluorescent analog 2-NBDG (glucose uptake),[1],decreased
same,% of microglia that express CCL2,[2]; p<0.01,decreased
same,% of microglia that express TNF-α,[2]; p<0.05,decreased
same,concentration of TNF-α in serum,[3],decreased
same,marble burying score,[4],reduced the anxiety phenotype
